Here are results for one molecule from PMC5218480 (PLoS ONE, 2017).

The assay relates to MV-4-11 cells. In words: Gene expression microarray analysis (Affymetrix PrimeView) and GSEA. Particulars: ProbeSet 11716865_a_at; LIST B. On the set-up: RFU PODN (11730768_x_at) / Fold change /veh PODN (11730768_x_at) / RFU LINC00158 (11744669_a_at) / Fold change /veh LINC00158 (11744669_a_at) / RFU DUSP10 (11751237_a_at) / Fold change /veh DUSP10 (11751237_a_at) / RFU ID3 (11757404_x_at) / Fold change /veh ID3 (11757404_x_at) / RFU PLEKHG5 (11737974_s_at) / Fold change /veh PLEKHG5 (11737974_s_at) / RFU LRRC4B (11730491_at) / Fold change /veh LRRC4B (11730491_at) / RFU GIMAP4 (11747438_a_at) / Fold change /veh GIMAP4 (11747438_a_at) / RFU KRT8 (11758183_x_at) / Fold change /veh KRT8 (11758183_x_at) / RFU CNN1 (11734310_a_at) / Fold change /veh CNN1 (11734310_a_at) / RFU VPS37D (11726825_at) / Fold change /veh VPS37D (11726825_at) / RFU C10orf10 (11716522_x_at) / Fold change /veh C10orf10 (11716522_x_at) / RFU KIR2DL2 /// KIR2DL4 /// KIR2DL5A /// KIR2DL5B /// KIR2DS1 /// KIR2DS2 /// KIR2DS3 /// KIR2DS4 /// KIR3DL3 /// KIR3DL3 /// KIR3DS1 (11738374_at) / Fold change /veh KIR2DL2 /// KIR2DL4 /// KIR2DL5A /// KIR2DL5B /// KIR2DS1 /// KIR2DS2 /// KIR2DS3 /// KIR2DS4 /// KIR3DL3 /// KIR3DL3 /// KIR3DS1 (11738374_at) / RFU C1QL1 (11718748_at) / Fold change /veh C1QL1 (11718748_at) / RFU TMPRSS4 (11747572_a_at) / Fold change /veh TMPRSS4 (11747572_a_at) / RFU HAMP (11756126_x_at) / Fold change /veh HAMP (11756126_x_at) / RFU RNFT2 (11725882_a_at) / Fold change /veh RNFT2 (11725882_a_at) / RFU NR4A2 (11747474_a_at) / Fold change /veh NR4A2 (11747474_a_at) / RFU ABCC12 (11746883_a_at) / Fold change /veh ABCC12 (11746883_a_at) / RFU TMEM136 (11760407_x_at) / Fold change /veh TMEM136 (11760407_x_at) / RFU CLDN22 /// WWC2 (11732394_at) / Fold change /veh CLDN22 /// WWC2 (11732394_at) / RFU HLA-DPB1 (11760878_x_at) / Fold change /veh HLA-DPB1 (11760878_x_at) / RFU SPINT1 (11716480_a_at) / Fold change /veh SPINT1 (11716480_a_at) / RFU GAP43 (11754022_s_at) / Fold change /veh GAP43 (11754022_s_at) / RFU A4GNT (11735810_at) / Fold change /veh A4GNT (11735810_at) / RFU PRB3 (11715151_x_at) / Fold change /veh PRB3 (11715151_x_at) / RFU TUBB4B (11761932_at) / Fold change /veh TUBB4B (11761932_at) / RFU CAPN14 (11732068_a_at) / Fold change /veh CAPN14 (11732068_a_at) / RFU TMCC2 (11721928_a_at) / Fold change /veh TMCC2 (11721928_a_at) / RFU IRGQ (11745062_a_at) / Fold change /veh IRGQ (11745062_a_at) / RFU FAM174B (11720279_a_at) / Fold change /veh FAM174B (11720279_a_at) / RFU TMPRSS4 (11748680_a_at) / Fold change /veh TMPRSS4 (11748680_a_at) / RFU FAM212B (11763350_a_at) / Fold change /veh FAM212B (11763350_a_at) / RFU PLEKHG5 (11743358_a_at) / Fold change /veh PLEKHG5 (11743358_a_at) / RFU ZSCAN30 (11745921_a_at) / Fold change /veh ZSCAN30 (11745921_a_at) / RFU CMKLR1 (11741424_a_at) / Fold change /veh CMKLR1 (11741424_a_at) / RFU LOC101060620 /// MAPK8IP1 (11723275_at) / Fold change /veh LOC101060620 /// MAPK8IP1 (11723275_at) / RFU SPTSSB (11747773_x_at) / Fold change /veh SPTSSB (11747773_x_at) / RFU PRSS12 (11739890_at) / Fold change /veh PRSS12 (11739890_at) / RFU BIN1 (11741810_x_at) / Fold change /veh BIN1 (11741810_x_at) / RFU WNT11 (11732464_a_at) / Fold change /veh WNT11 (11732464_a_at) / RFU C10orf10 (11716521_a_at) / Fold change /veh C10orf10 (11716521_a_at) / RFU C5orf56 (11738089_at) / Fold change /veh C5orf56 (11738089_at) / RFU CYB561 (11721691_x_at) / Fold change /veh CYB561 (11721691_x_at) / RFU ANKRD19P (11752326_a_at) / Fold change /veh ANKRD19P (11752326_a_at) / RFU OR2T12 /// OR2T33 /// OR2T8 (11738714_s_at) / Fold change /veh OR2T12 /// OR2T33 /// OR2T8 (11738714_s_at) / RFU VCAN (11748164_a_at) / Fold change /veh VCAN (11748164_a_at) / RFU JSRP1 (11732532_at) / Fold change /veh JSRP1 (11732532_at) / RFU KRTAP10-11 (11738290_x_at) / Fold change /veh KRTAP10-11 (11738290_x_at) / RFU MYO3A (11730013_a_at) / Fold change /veh MYO3A (11730013_a_at) / RFU EBF3 (11725865_a_at) / Fold change /veh EBF3 (11725865_a_at) / RFU CAMK2N1 (11719241_x_at) / Fold change /veh CAMK2N1 (11719241_x_at) / RFU C5orf56 (11738088_a_at) / Fold change /veh C5orf56 (11738088_a_at) / RFU OLFML3 (11715873_a_at) / Fold change /veh OLFML3 (11715873_a_at) / RFU LOC100653217 /// NTM (11731650_a_at) / Fold change /veh LOC100653217 /// NTM (11731650_a_at) / RFU MAPK11 (11762145_a_at) / Fold change /veh MAPK11 (11762145_a_at) / RFU FIZ1 (11724087_x_at) / Fold change /veh FIZ1 (11724087_x_at) / RFU OASL (11726364_x_at) / Fold change /veh OASL (11726364_x_at) / RFU SOX15 (11748057_x_at) / Fold change /veh SOX15 (11748057_x_at) / RFU CD79A (11719716_a_at) / Fold change /veh CD79A (11719716_a_at) / RFU HIST1H1D (11736915_at) / Fold change /veh HIST1H1D (11736915_at) / RFU CASKIN2 (11723855_a_at) / Fold change /veh CASKIN2 (11723855_a_at) / RFU LOC730098 (11760151_x_at) / Fold change /veh LOC730098 (11760151_x_at) / RFU OR4N2 (11742367_at) / Fold change /veh OR4N2 (11742367_at) / RFU PRRT2 (11749266_a_at) / Fold change /veh PRRT2 (11749266_a_at) / RFU SNX32 (11753110_a_at) / Fold change /veh SNX32 (11753110_a_at) / RFU CDHR5 (11726645_a_at) / Fold change /veh CDHR5 (11726645_a_at) / RFU RCAN1 (11760418_a_at) / Fold change /veh RCAN1 (11760418_a_at) / RFU FAM167A (11723789_a_at) / Fold change /veh FAM167A (11723789_a_at) / RFU FAM26E (11764081_at) / Fold change /veh FAM26E (11764081_at) / RFU ISYNA1 (11749810_s_at) / Fold change /veh ISYNA1 (11749810_s_at) / RFU ACY1 (11761880_at) / Fold change /veh ACY1 (11761880_at) / RFU 11764098_at / Fold change /veh 11764098_at / RFU SAMD14 (11745864_x_at) / Fold change /veh SAMD14 (11745864_x_at) / RFU NPB (11741838_a_at) / Fold change /veh NPB (11741838_a_at) / RFU TMPRSS6 (11731388_a_at) / Fold change /veh TMPRSS6 (11731388_a_at) / RFU KRTAP10-2 (11738614_at) / Fold change /veh KRTAP10-2 (11738614_at) / RFU ARHGAP8 /// PRR5-ARHGAP8 (11727945_x_at) / Fold change /veh ARHGAP8 /// PRR5-ARHGAP8 (11727945_x_at) / RFU KRTAP5-7 /// NADSYN1 (11734609_at) / Fold change /veh KRTAP5-7 /// NADSYN1 (11734609_at) / RFU RASL12 (11751679_a_at) / Fold change /veh RASL12 (11751679_a_at) / RFU CDKN2B (11736163_a_at) / Fold change /veh CDKN2B (11736163_a_at) / RFU PRF1 (11729649_at) / Fold change /veh PRF1 (11729649_at) / RFU, ZNF638 /// ZNF638-IT1 / Fold change vs veh, ZNF638 /// ZNF638-IT1 / RFU, PANK3 / Fold change vs veh, PANK3 / RFU, SH3YL1 / Fold change vs veh, SH3YL1 / RFU, ZEB2 / Fold change vs veh, ZEB2 / RFU, NRIP1 / Fold change vs veh, NRIP1 / RFU, PTTG1IP / Fold change vs veh, PTTG1IP / RFU, CAPN2 / Fold change vs veh, CAPN2 / RFU, MED14 / Fold change vs veh, MED14 / RFU, SNORA58 / Fold change vs veh, SNORA58 / RFU, C1orf63 / Fold change vs veh, C1orf63 / RFU, LRRFIP1 / Fold change vs veh, LRRFIP1 / RFU, NDUFAF7 / Fold change vs veh, NDUFAF7 / RFU, SLC12A2 / Fold change vs veh, SLC12A2 / RFU, IBTK / Fold change vs veh, IBTK / RFU, ESF1 / Fold change vs veh, ESF1 / Fold change vs veh, TMEM50B / RFU, TAOK1 / Fold change vs veh, TAOK1 / RFU, ACBD3 / Fold change vs veh, ACBD3 / RFU, TMA16 / Fold change vs veh, TMA16 / RFU, RWDD3 / Fold change vs veh, RWDD3 / RFU, BCAT1 / Fold change vs veh, BCAT1 / RFU, EDEM3 / Fold change vs veh, EDEM3 / RFU, TMEM33 / Fold change vs veh, TMEM33 / RFU, WDR75 / Fold change vs veh, WDR75 / RFU, AHCTF1 / Fold change vs veh, AHCTF1 / RFU, TFRC / Fold change vs veh, TFRC / RFU, ZDHHC17 / Fold change vs veh, ZDHHC17 / RFU, NOM1 / Fold change vs veh, NOM1 / RFU, ARL8B / Fold change vs veh, ARL8B / RFU, ZBTB11 / Fold change vs veh, ZBTB11 / RFU, TAMM41 / Fold change vs veh, TAMM41 / RFU, KIAA1704 /// LOC100996395 / Fold change vs veh, KIAA1704 /// LOC100996395 / RFU, ING1 / Fold change vs veh, ING1 / RFU, TRMT61B / Fold change vs veh, TRMT61B / RFU, FUBP3 / Fold change vs veh, FUBP3 / RFU, TP53 / Fold change vs veh, TP53 / RFU, TNKS2 / Fold change vs veh, TNKS2 / RFU, ZFP14 / Fold change vs veh, ZFP14 / RFU, ACTR2 / Fold change vs veh, ACTR2 / RFU, PPP3R1 / Fold change vs veh, PPP3R1 / RFU, PIK3R1 / Fold change vs veh, PIK3R1 / RFU, HNRNPA1 / Fold change vs veh, HNRNPA1 / RFU, RNF170 / Fold change vs veh, RNF170 / RFU, ZNF28 / Fold change vs veh, ZNF28 / RFU, RNGTT / Fold change vs veh, RNGTT / RFU, OGT / Fold change vs veh, OGT / RFU, BRD1 / Fold change vs veh, BRD1 / RFU, MARS / Fold change vs veh, MARS / RFU, ZNF655 / Fold change vs veh, ZNF655 / RFU, FAHD1 / Fold change vs veh, FAHD1 / RFU, BDP1 / Fold change vs veh, BDP1 / RFU, LRRCC1 / Fold change vs veh, LRRCC1 / RFU, ARID1A / Fold change vs veh, ARID1A / RFU, ZNF146 / Fold change vs veh, ZNF146 / RFU, ZNF330 / Fold change vs veh, ZNF330 / RFU, GPN3 / Fold change vs veh, GPN3 / RFU, C9orf123 / Fold change vs veh, C9orf123 / RFU, N4BP2L2 / Fold change vs veh, N4BP2L2 / RFU, ARFIP1 / Fold change vs veh, ARFIP1 / RFU, FAM179B / Fold change vs veh, FAM179B / RFU, BCL10 / Fold change vs veh, BCL10 / RFU, UHRF1BP1L / Fold change vs veh, UHRF1BP1L / RFU, BET1 / Fold change vs veh, BET1 / RFU, CNOT2 / Fold change vs veh, CNOT2 / RFU, ZNF268 / Fold change vs veh, ZNF268 / Fold change vs veh, ZNF507 / RFU, DGCR2 / Fold change vs veh, DGCR2 / RFU, WDSUB1 / Fold change vs veh, WDSUB1 / Fold change vs veh, HSP90B1 /// MIR3652 / RFU, ADSS / Fold change vs veh, ADSS / RFU, GK / Fold change vs veh, GK / RFU, ZNF148 / Fold change vs veh, ZNF148 / RFU, TAF9 / Fold change vs veh, TAF9 / RFU, SLC1A5 / Fold change vs veh, SLC1A5 / RFU, SLMO2 / Fold change vs veh, SLMO2 / RFU, ABCC4 / Fold change vs veh, ABCC4 / RFU, LOC101060439 /// RAP1B / Fold change vs veh, LOC101060439 /// RAP1B / RFU, RFX7 / Fold change vs veh, RFX7 / RFU, GTPBP10 / Fold change vs veh, GTPBP10 / RFU, CNEP1R1 / Fold change vs veh, CNEP1R1 / RFU, BIVM-ERCC5 /// ERCC5 / Fold change vs veh, BIVM-ERCC5 /// ERCC5 / RFU, ILF3 / Fold change vs veh, ILF3 / RFU 11762660_at / Fold change /veh 11762660_at / RFU VCAN (11757783_s_at) / Fold change /veh VCAN (11757783_s_at) / RFU DDX43 (11728927_at) / Fold change /veh DDX43 (11728927_at) / RFU KRT8 (11758188_x_at) / Fold change /veh KRT8 (11758188_x_at) / RFU NKD1 (11759106_at) / Fold change /veh NKD1 (11759106_at) / RFU SRD5A1 (11742802_a_at) / Fold change /veh SRD5A1 (11742802_a_at) / RFU TPSAB1 /// TPSB2 (11721975_s_at) / Fold change /veh TPSAB1 /// TPSB2 (11721975_s_at) / RFU GSTM3 (11746129_a_at) / Fold change /veh GSTM3 (11746129_a_at) / RFU IL23R (11737362_x_at) / Fold change /veh IL23R (11737362_x_at) / RFU TMEM51 (11727254_a_at) / Fold change /veh TMEM51 (11727254_a_at) / RFU PIWIL2 (11732686_x_at) / Fold change /veh PIWIL2 (11732686_x_at) / RFU ORM1 (11744905_x_at) / Fold change /veh ORM1 (11744905_x_at) / RFU CCDC152 (11743942_at) / Fold change /veh CCDC152 (11743942_at) / RFU ECM1 (11717891_a_at) / Fold change /veh ECM1 (11717891_a_at) / RFU IL23R (11748794_a_at) / Fold change /veh IL23R (11748794_a_at) / RFU TNFAIP8L3 (11732012_x_at) / Fold change /veh TNFAIP8L3 (11732012_x_at) / RFU MBOAT4 (11741988_at) / Fold change /veh MBOAT4 (11741988_at) / RFU 11764193_at / Fold change /veh 11764193_at / RFU TMEM53 (11763286_at) / Fold change /veh TMEM53 (11763286_at) / RFU MAGEB2 (11727129_at) / Fold change /veh MAGEB2 (11727129_at) / RFU TMEM200A (11744735_a_at) / Fold change /veh TMEM200A (11744735_a_at) / RFU CCDC152 (11751479_a_at) / Fold change /veh CCDC152 (11751479_a_at) / RFU FAM211A (11726209_a_at) / Fold change /veh FAM211A (11726209_a_at) / RFU RGS16 (11746705_a_at) / Fold change /veh RGS16 (11746705_a_at) / RFU VCAN (11755009_s_at) / Fold change /veh VCAN (11755009_s_at) / RFU RHOB (11743442_s_at) / Fold change /veh RHOB (11743442_s_at) / RFU RGS16 (11720943_a_at) / Fold change /veh RGS16 (11720943_a_at) / RFU RGS16 (11720944_at) / Fold change /veh RGS16 (11720944_at) / RFU, VPS4B / Fold change vs veh, VPS4B / RFU, CREB1 / Fold change vs veh, CREB1 / RFU, DNAJC13 / Fold change vs veh, DNAJC13 / RFU, GNAQ / Fold change vs veh, GNAQ / RFU, CDK5R1 / Fold change vs veh, CDK5R1 / RFU, ZRANB3 / Fold change vs veh, ZRANB3 / RFU, CUL4A / Fold change vs veh, CUL4A / RFU, CCNY / Fold change vs veh, CCNY / RFU, UFL1 / Fold change vs veh, UFL1 / RFU, COG3 / Fold change vs veh, COG3 / RFU, DIAPH2 / Fold change vs veh, DIAPH2 / RFU, SKA2 / Fold change vs veh, SKA2 / RFU, AFF3 / Fold change vs veh, AFF3 / RFU, LMF1 / Fold change vs veh, LMF1 / RFU, IPO11 / Fold change vs veh, IPO11 / RFU, DFFB / Fold change vs veh, DFFB / RFU, FOXP1 / Fold change vs veh, FOXP1 / RFU, CARD8 / Fold change vs veh, CARD8 / RFU, STRN3 / Fold change vs veh, STRN3 / RFU, ADK / Fold change vs veh, ADK / RFU, RASSF2 / Fold change vs veh, RASSF2 / RFU, WIPF1 / Fold change vs veh, WIPF1 / RFU, LARP1B / Fold change vs veh, LARP1B / RFU, RASA1 / Fold change vs veh, RASA1 / RFU, RB1 / Fold change vs veh, RB1 / RFU, PPFIA1 / Fold change vs veh, PPFIA1 / RFU, MAT2A / Fold change vs veh, MAT2A / RFU, CCT5 / Fold change vs veh, CCT5 / RFU, WDR92 / Fold change vs veh, WDR92 / RFU, CUX1 / Fold change vs veh, CUX1 / RFU, TTC7A / Fold change vs veh, TTC7A / RFU, TMEM135 / Fold change vs veh, TMEM135 / RFU, DEPTOR / Fold change vs veh, DEPTOR / RFU, CPM / Fold change vs veh, CPM / RFU, DNAJB6 / Fold change vs veh, DNAJB6 / RFU, CACNA2D3 / Fold change vs veh, CACNA2D3 / RFU, DTX4 / Fold change vs veh, DTX4 / RFU, TFCP2 / Fold change vs veh, TFCP2 / RFU, GMCL1 /// GMCL1P1 / Fold change vs veh, GMCL1 /// GMCL1P1 / RFU, AEBP2 / Fold change vs veh, AEBP2 / RFU, SNHG1 /// SNORD22 /// SNORD25 /// SNORD26 /// SNORD27 /// SNORD28 /// SNORD29 /// SNORD31 / Fold change vs veh, SNHG1 /// SNORD22 /// SNORD25 /// SNORD26 /// SNORD27 /// SNORD28 /// SNORD29 /// SNORD31 / Fold change (Aza/veh), C12orf56 (ProbeSet 11735607_a_at) / Fold change (ACY-1035/veh), C12orf56 (ProbeSet 11735607_a_at) / Fold change (Aza/veh), FGFR1OP (ProbeSet 11751329_s_at) / Fold change (ACY-1035/veh), FGFR1OP (ProbeSet 11751329_s_at) / Fold change (Aza/veh), VPS36 (ProbeSet 11739960_a_at) / Fold change (ACY-1035/veh), VPS36 (ProbeSet 11739960_a_at) / RFU SYPL1 (11715823_x_at) / Fold change /veh SYPL1 (11715823_x_at) / RFU IGFBP7 (11715501_s_at) / Fold change /veh IGFBP7 (11715501_s_at) / RFU REEP3 (11722064_at) / Fold change /veh REEP3 (11722064_at) / RFU IGLL1 (11728026_x_at) / Fold change /veh IGLL1 (11728026_x_at): dose or concentration left out as unconfirmed. The assay is classed as cell-based, human.

In the case of `Nc1ncn([C@@H]2O[C@H](CO)[C@@H](O)[C@H]2O)c(=O)n1` [azacitidine], the “Fold change vs veh, SLC1A5” value is 0.87.
